We go through 42 compounds from patent US20240217966A1, “PHARMACEUTICAL COMPOSITION CONTAINING GLP-1 RECEPTOR AGONIST HAVING FUSED RING” (Shionogi & Co., Ltd., priority 2021, published 2024).

The target of this experiment is T1, Human GLP-1 receptor (Homo sapiens, UniProt P43220).
T1 construct: expressed in transfected cells
Put plainly: Measurement of GLP-1 receptor agonist activity (cAMP assay). The format is cell-based. In short, it runs like this: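 hGLP-1R/CHO-K1 cells in HBSS with 0.1% BSA, 20 mM HEPES, 0.1 mM IBMX and 0.2 mM RO20-1724 exposed to compound plus forskolin (400 μM stock) for 1 h at 37 °C. Intracellular cAMP read by HTRF (cAMP-d2/anti-cAMP cryptate, 1 h at room temperature).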

Setting [1] is: CHO-K1, hGLP-1R/CHO-K1 cells, cAMP, 100% = human GLP-1 (7-36) at 2 nM, 0% = DMSO only, read-out: Emax(%).
Where [2] appears, read: hGLP-1R/CHO-K1 cells, cAMP increase, 37° C. 1 hour.
Where [3] appears, read: CHO-K1, maximum effect, cAMP increase in GLP-1 R/CHO-K1 cells, 2 nM human GLP-1 (7-36) = 100%, DMSO only = 0%, read-out: Emax.
Setting [4] is: cAMP increase in GLP-1 R/CHO-K1 cells, 2 nM human GLP-1 (7-36) = 100%, DMSO only = 0%.

Read-outs that look alike come from different tables or passages of the source.

T1 sequence (P43220 24-463): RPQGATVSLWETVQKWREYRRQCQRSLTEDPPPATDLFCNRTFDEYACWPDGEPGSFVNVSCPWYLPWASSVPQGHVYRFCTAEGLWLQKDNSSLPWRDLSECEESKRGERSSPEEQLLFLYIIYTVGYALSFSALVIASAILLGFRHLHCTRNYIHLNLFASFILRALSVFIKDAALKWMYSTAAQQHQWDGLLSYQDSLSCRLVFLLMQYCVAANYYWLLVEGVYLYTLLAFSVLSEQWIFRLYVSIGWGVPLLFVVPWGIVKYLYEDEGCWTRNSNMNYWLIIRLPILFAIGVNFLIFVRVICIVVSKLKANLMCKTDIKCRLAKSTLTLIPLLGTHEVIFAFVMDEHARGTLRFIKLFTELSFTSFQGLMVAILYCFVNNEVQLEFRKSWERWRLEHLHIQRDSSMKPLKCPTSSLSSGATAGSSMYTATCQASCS

As for `C[C@H]1c2cc(OCc3ccc(Cl)cc3Cl)c(C(F)(F)F)cc2CCN1Cc1nc2ccc(C(=O)O)c(F)c2n1C[C@@H]1CCO1` [Compound I-201], the Emax under setting [1] stood at 123%. In addition, under setting [2], the EC50 is 0.274 nM.

Regarding `COc1ccc(COc2cc3c(cc2C(F)(F)F)CCN(Cc2nc4c(F)cc(C(=O)O)cc4n2C[C@@H]2CCO2)[C@H]3C)cc1` [Compound I-202], the Emax under setting [1] worked out at 105%. Under setting [2], the EC50 stood at 1.66 nM. Turning to `C[C@H]1c2cc(OCc3ccc(Cl)cn3)c(C(F)(F)F)cc2CCN1Cc1nc2c(F)cc(C(=O)O)cc2n1C[C@@H]1CCO1` [Compound I-203], the Emax under setting [1] was 104%. Under setting [2], this compound registered an EC50 of 0.31 nM. Regarding `Cc1csc(COc2cc3c(cc2C(F)(F)F)CCN(Cc2nc4c(F)cc(C(=O)O)cc4n2C[C@@H]2CCO2)[C@H]3C)n1` [Compound I-204], the maximal response (Emax) under setting [1] worked out at 117%. For the same compound, the EC50 under setting [2] amounted to 0.509 nM.

For the compound `C[C@H]1c2cc(OCc3ccc(Cl)cc3)c(C(F)(F)F)cc2CCN1Cc1nc2c(F)cc(C(=O)O)cc2n1C[C@@H]1CCO1` [Compound I-205], the Emax under setting [1] was found to be 109%. In addition, the midpoint of the response under setting [2], the EC50, lay at 0.447 nM. For the compound `Cc1ccc(COc2cc3c(cc2C(F)(F)F)CCN(Cc2nc4c(F)cc(C(=O)O)cc4n2C[C@@H]2CCO2)[C@H]3C)cc1` [Compound I-206], under setting [1], the Emax is 110%. In addition, a half-maximal response under setting [2] (EC50) required 0.511 nM. `C[C@H]1c2cc(OCc3ccc(C4CC4)cc3)c(C(F)(F)F)cc2CCN1Cc1nc2c(F)cc(C(=O)O)cc2n1C[C@@H]1CCO1` [Compound I-207]: under setting [1], the Emax was 90.3%. The response under setting [2] was half-maximal at 1.72 nM (EC50). On the same counts, the results for `COc1cc(Cl)ccc1COc1cc2c(cc1C(F)(F)F)CCN(Cc1nc3c(F)cc(C(=O)O)cc3n1C[C@@H]1CCO1)[C@H]2C` [Compound I-208] are 109% and 0.0824 nM. As for `C[C@H]1c2cc(OCc3ccccc3Cl)c(C(F)(F)F)cc2CCN1Cc1nc2c(F)cc(C(=O)O)cc2n1C[C@@H]1CCO1` [Compound I-209], the Emax under setting [1] turned out to be 112%. In addition, a half-maximal response under setting [2] (EC50) required 0.984 nM.

Regarding `C[C@H]1c2cc(OCc3ccc(F)cc3F)c(C(F)(F)F)cc2CCN1Cc1nc2c(F)cc(C(=O)O)cc2n1C[C@@H]1CCO1` [Compound I-210], the Emax under setting [1] came out at 113%. In addition, the response under setting [2] was half-maximal at 0.434 nM (EC50). Regarding `C[C@H]1c2cc(OCc3ccc(Cl)cc3Cl)c(C(F)(F)F)cc2CCN1Cc1nc2c(F)cc(C(=O)O)cc2n1C[C@@H]1CCO1` [Compound I-211], under setting [1], the Emax came to 103%. This compound also gave an EC50 under setting [2] of 0.181 nM. On to `C[C@H]1c2cc(OCc3ccc(OC(F)F)cc3F)c(C(F)(F)F)cc2CCN1Cc1nc2c(F)cc(C(=O)O)cc2n1C[C@@H]1CCO1` [Compound I-212], for which the maximum response (Emax) under setting [1] was 104%. This compound displayed a concentration giving a half-maximal response (EC50) under setting [2] of 1 nM. As to `C[C@H]1c2cc(OCc3cc(F)c(Cl)cc3F)c(C(F)(F)F)cc2CCN1Cc1nc2c(F)cc(C(=O)O)cc2n1C[C@@H]1CCO1` [Compound I-213], the Emax under setting [1] was 122%. Moreover, under setting [2], the response was half-maximal at 0.366 nM (EC50).

In the case of `C[C@H]1c2cc(OCc3ccc(C#N)cc3F)c(C(F)(F)F)cc2CCN1Cc1nc2c(F)cc(C(=O)O)cc2n1C[C@@H]1CCO1` [Compound I-214], under setting [1], the Emax turned out to be 104%. Moreover, under setting [2], the EC50 amounted to 0.392 nM. With `C[C@H]1c2cc(OCc3ccc(C(F)F)cc3F)c(C(F)(F)F)cc2CCN1Cc1nc2ccc(C(=O)O)cc2n1C[C@@H]1CCO1` [Compound I-215], under setting [1], the Emax stood at 106%. Moreover, the EC50 under setting [2] came out at 1.82 nM. For the compound `O=C(O)c1ccc2nc(CN3CCc4cc(C(F)(F)F)c(OCc5c(F)cc(C(F)F)cc5F)cc4C3)n(C[C@@H]3CCO3)c2c1` [Compound I-216], the Emax under setting [1] turned out to be 103%. A half-maximal response under setting [2] (EC50) required 8.62 nM. Consider `O=C(O)c1ccc2nc(CN3CCc4cc(C(F)(F)F)c(OCc5c(F)cc(OC(F)F)cc5F)cc4C3)n(C[C@@H]3CCO3)c2c1` [Compound I-217], for which, under setting [1], the Emax stood at 103%. Besides, the EC50 under setting [2] is 2.34 nM. Turning to `C[C@H]1c2nc(OCc3ccc(F)cc3)c(C(F)(F)F)cc2CCN1Cc1nc2ccc(C(=O)O)cc2n1C[C@@H]1CCO1` [Compound I-218], the maximal response (Emax) under setting [1] was found to be 109%. Under setting [2], this compound had a 50% effective concentration (EC50) of 0.179 nM. On to `C[C@H]1c2cc(OCc3ccc(C#N)cc3F)c(C(F)(F)F)cc2CCN1Cc1nc2ccc(C(=O)O)c(F)c2n1C[C@@H]1CCO1` [Compound I-219], for which the maximum response (Emax) under setting [1] was 114%. The compound also yielded an EC50 under setting [2] of 1.2 nM. Regarding `C[C@H]1c2nc(OCc3ccc(F)cc3Cl)c(C(F)(F)F)cc2CCN1Cc1nc2ccc(C(=O)O)cc2n1C[C@@H]1CCO1` [Compound I-220], the Emax under setting [1] is 110%. The compound further showed an EC50 under setting [2] of 0.251 nM. As to `C[C@H]1c2cc(OCc3ccc(C#N)cc3F)c(Cl)cc2CCN1Cc1nc2ccc(C(=O)O)cc2n1C[C@@H]1CCO1` [Compound I-221], the Emax under setting [1] came out at 125%. The compound also had an EC50 under setting [2] of 6.07 nM. For the compound `O=C(O)c1ccc2nc(CN3CCc4cc(C(F)(F)F)c(OCc5ccc(Cl)cc5F)nc4C3)n(C[C@@H]3CCO3)c2c1F` [Compound I-222], the Emax under setting [1] is 108%. Consider `C[C@H]1c2nc(OCc3ccc(Cl)cc3)c(C(F)(F)F)cc2CCN1Cc1nc2ccc(C(=O)O)c(F)c2n1C[C@@H]1CCO1` [Compound I-223], for which the Emax under setting [1] was 103%. The same compound yielded a 50% effective concentration (EC50) under setting [2] of 0.12 nM.

As for `COc1ccc(COc2cc3c(cc2C(F)(F)F)CCN(Cc2nc4c(OC)cc(C(=O)O)cc4n2C[C@@H]2CCO2)[C@H]3C)cc1` [Compound I-224], the Emax under setting [3] is 110%. The compound also gave a concentration giving a half-maximal response (EC50) under setting [4] of 1.41 nM. On the same counts, the results for `COc1cc(C(=O)O)cc2c1nc(CN1CCc3cc(C(F)(F)F)c(OCc4ccc(Cl)cn4)cc3[C@@H]1C)n2C[C@@H]1CCO1` [Compound I-225] are 104% and 0.348 nM. On the same counts, the results for `COc1cc(C(=O)O)cc2c1nc(CN1CCc3cc(C(F)(F)F)c(OCc4ccc(Cl)cc4)cc3[C@@H]1C)n2C[C@@H]1CCO1` [Compound I-226] are 112% and 0.628 nM. On the same counts, the results for `COc1cc(C(=O)O)cc2c1nc(CN1CCc3cc(C(F)(F)F)c(OCc4ccc(C)cc4)cc3[C@@H]1C)n2C[C@@H]1CCO1` [Compound I-227] are 103% and 0.3 nM. Consider `COc1cc(C(=O)O)cc2c1nc(CN1CCc3cc(C(F)(F)F)c(OCc4ccc(C5CC5)cc4)cc3[C@@H]1C)n2C[C@@H]1CCO1` [Compound I-228], for which, under setting [3], the Emax was 106%. The EC50 under setting [4] worked out at 2.41 nM. Regarding `COc1cc(Cl)ccc1COc1cc2c(cc1C(F)(F)F)CCN(Cc1nc3c(OC)cc(C(=O)O)cc3n1C[C@@H]1CCO1)[C@H]2C` [Compound I-229], under setting [3], the maximal response (Emax) came to 105%. This compound also yielded an EC50 under setting [4] of 0.0656 nM. `COc1cc(C(=O)O)cc2c1nc(CN1CCc3cc(C(F)(F)F)c(OCc4ccccc4Cl)cc3[C@@H]1C)n2C[C@@H]1CCO1` [Compound I-230]: under setting [3], the maximum response (Emax) was 109%. Under setting [4], the EC50 is 0.693 nM. On to `COc1cc(C(=O)O)cc2c1nc(CN1CCc3cc(C(F)(F)F)c(OCc4ccc(F)cc4F)cc3[C@@H]1C)n2C[C@@H]1CCO1` [Compound I-231], for which the maximum response (Emax) under setting [3] was 106%. In addition, the EC50 under setting [4] was 0.282 nM. For `COc1cc(C(=O)O)cc2c1nc(CN1CCc3cc(C(F)(F)F)c(OCc4ccc(Cl)cc4Cl)cc3[C@@H]1C)n2C[C@@H]1CCO1` [Compound I-232], the Emax under setting [3] amounted to 117%. The compound also came in with an EC50 under setting [4] of 0.223 nM.

For the compound `COc1cc(C(=O)O)cc2c1nc(CN1CCc3cc(C(F)(F)F)c(OCc4ccc(OC(F)F)cc4F)cc3[C@@H]1C)n2C[C@@H]1CCO1` [Compound I-233], the Emax under setting [3] stood at 97.7%. The response under setting [4] was half-maximal at 1.29 nM (EC50). For `COc1cc(C(=O)O)cc2c1nc(CN1CCc3cc(C(F)(F)F)c(OCc4cc(F)c(Cl)cc4F)cc3[C@@H]1C)n2C[C@@H]1CCO1` [Compound I-234], the Emax under setting [3] was 109%. Moreover, the 50% effective concentration (EC50) under setting [4] turned out to be 0.354 nM.

As for `COc1cc(C(=O)O)cc2c1nc(CN1CCc3cc(C(F)(F)F)c(OCc4ccc(C#N)cc4F)cc3[C@@H]1C)n2C[C@@H]1CCO1` [Compound I-235], the Emax under setting [3] was found to be 102%. This compound also had an EC50 under setting [4] of 0.378 nM. For `COc1cc(C(=O)O)cc2c1nc(CN1CCc3cc(C(F)(F)F)c(OCc4ccc(F)cc4)cc3[C@@H]1C)n2C[C@@H]1CCO1` [Compound I-236], under setting [3], the Emax worked out at 106%. The compound further registered a concentration giving a half-maximal response (EC50) under setting [4] of 0.429 nM. Take `COc1cc(C(=O)O)cc2c1nc(CN1CCc3cc(C(F)(F)F)c(OCc4c(F)cc(Cl)cc4F)cc3[C@@H]1C)n2C[C@@H]1CCO1` [Compound I-237]: the Emax under setting [3] amounted to 102%. Besides, the EC50 under setting [4] worked out at 0.103 nM. Turning to `COc1cc(C(=O)O)cc2c1nc(CN1CCc3cc(C(F)(F)F)c(OCc4c(F)cc(F)cc4F)cc3[C@@H]1C)n2C[C@@H]1CCO1` [Compound I-238], the Emax under setting [3] came out at 106%. Moreover, under setting [4], it took 0.36 nM to reach a half-maximal effect (EC50). Turning to `C[C@H]1c2nc(OCc3ccc(Cl)cc3)c(C(F)(F)F)cc2CCN1Cc1nc2c(F)cc(C(=O)O)cc2n1C[C@@H]1CCO1` [Compound I-239], the Emax under setting [3] is 95.3%. The compound also registered a 50% effective concentration (EC50) under setting [4] of 0.0882 nM. In the case of `C[C@H]1c2nc(OCc3ccc(C#N)cc3F)c(C(F)(F)F)cc2CCN1Cc1nc2ccc(C(=O)O)c(F)c2n1C[C@@H]1CCO1` [Compound I-240], the Emax under setting [3] is 122%. Besides, under setting [4], the response was half-maximal at 0.0648 nM (EC50). For `C[C@H]1c2nc(OCc3ccc(C#N)cc3F)c(C(F)(F)F)cc2CCN1Cc1nc2c(F)cc(C(=O)O)cc2n1C[C@@H]1CCO1` [Compound I-241], the Emax under setting [3] amounted to 125%. The same compound gave an EC50 under setting [4] of 0.0302 nM. On to `COc1cc(C(=O)O)cc2c1nc(CN1CCc3cc(C(F)(F)F)c(OCc4ccc(C#N)cc4F)nc3[C@@H]1C)n2C[C@@H]1CCO1` [Compound I-242], for which the Emax under setting [3] came to 116%. The EC50 under setting [4] was 0.0124 nM.
